Active and inactive are the calls of the source.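 Rule for the calls: active = compounds giving half or more protection of infected cells from virus-caused growth loss, again on retest; inactive = the rest.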 Where a SMILES comes first, the peptide text is derived from it.
Test system: CEM cells HIV-1 protection, formazan growth assay
Assay: NCI AIDS Antiviral Assay
Conditions: for IC50: measured here: growth of uninfected CEM cells
Method in brief: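 Human CEM cells, uninfected and HIV-1-infected, received five drug concentrations, and growth was read by soluble formazan assay. Compounds giving at least 50% protection were retested; reproducible 100% protection defined confirmed active.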

SMILES | EC50 [µM] | IC50 [µM] | outcome
CCOC(=O)CC(=O)C(=O)NNC1=NCCN1 | > 200 | > 200 | 
CCCc1cc(=O)oc2c3c(c4c(c12)OC(C)(C)C=C4)O[C@H](C)[C@@H](C)C3O (stereo not given in full) | 2.4 | 11.7 | 
CCOC(=O)c1c(N2CCCC2)nsc1Nc1ccccc1 | > 200 | 145 | 
COc1cccc2c1C1(O)C2CCCCCCCCCC12OCCCO2 (stereo not given) | > 91.2 | 69.2 | 
Cc1c2c(nc3ccccc13)C(=O)c1cccnc1C2=O | > 100 | 13.5 | 
Cc1cc2c(c3[nH]c4ccccc4c13)C(=O)c1ccccc1C2=O | > 3.39 | > 3.39 | 
O=[N+]([O-])C=C(c1ccc(Cl)cc1)c1ccc(Cl)cc1 |  |  | inactive
Cc1cc(O)c(/C=N/C(=S)Nc2cc(Cl)ccc2Cl)c(=O)o1 | > 50.1 | > 50.1 | 
O=C(O)CSC(=S)CCCCCCCCCCC(=S)SCC(=O)O | > 120 | > 120 | 
Cc1ccc2cc(NC(=O)CN)c3ccc(C)nc3c2n1 | > 20 | 3.72 | 
COc1cc2c3c(c1)[nH]c(=S)n3C(=O)CS2 | > 28.8 | > 28.8 | 
CCCCOP(=O)(OCCCC)c1ccccc1 | 0.0631 | > 200 | 
CC(C)CC(NC(=O)C(Cc1ccc(O)cc1)NC(=O)C(CO)NC(=O)C(N)CCC(=O)O)C(=O)NCC(=O)O (stereo not given) (H-ESYLG-OH; configuration not given here) |  |  | inactive
Cc1cc(-c2ccc[nH]2)on1 | > 200 | > 200 | 
Cc1ccc2nc(NC(=O)C(=O)C(C#N)c3ccc(Cl)cc3)sc2c1 (stereo not given) | > 49 | > 49 | 
O=C(Cc1ccccc1)NN1C(=O)/C(=C\c2ccccc2)SC1=Nc1ccccc1 | > 120 | > 120 | 
CCOC(=O)c1cc(/C=C/C(C)=C/C(=O)OC)oc1-c1ccccc1 |  |  | inactive
Nc1nc(NCc2ccccc2)cc(NCc2ccccc2)n1 | > 20 | 2.75 | 
CC1OC(OC2C(CO)OC(O[C@H]3CC[C@@]4(C)C(=CC[C@H]5[C@@H]6C[C@@H]7O[C@](O)(CC[C@@H](C)COC8OC(CO)C(O)C(O)C8O)[C@@H](C)[C@@H]7[C@@]6(C)CC[C@@H]54)C3)C(OC3OC(C)C(O)C(O)C3O)C2O)C(O)C(O)C1O (stereo not given in full) | > 200 | 1.86 | 
COC1/C=C/OC2(C)Oc3c(C)c(O)c4c(O)c(c(/C=N/N5CC(C)N(C(=O)c6ccccc6)C(C)C5)c(O)c4c3C2=O)NC(=O)C(C)=C/C=C/C(C)C(O)C(C)C(O)C(C)C(OC(C)=O)C1C (stereo not given) | > 200 | 6.46 | 
COc1cc(Cc2cnc(N)nc2N)cc(OC)c1OC | > 200 | > 200 | 
CC(=O)OCC1OC(n2c3c(c(-c4cccc5ccccc45)c(C#N)c2=S)CCCC3)C(OC(C)=O)C(OC(C)=O)C1OC(C)=O (stereo not given) | > 200 | 47.9 | 
CN(C)/C=C/C(=CC=[N+](C)C)/C=C/N(C)C |  |  | inactive

SMILES | EC50 [µM] | IC50 [µM] | outcome
CCCc1c(O)c2ccccc2[nH]c1=O | > 200 | > 200 | 
CCOC(=O)/C=C/CCO[Si](C)(C)C(C)(C)C | > 200 | > 200 | 
Cc1ccc(/C=C2\Cc3cc(C)c(C)cc3C2=O)c(C(=O)O)c1 | > 200 | 38.9 | 
NC(=O)N/N=C(\CC1OC(=O)c2ccccc21)c1ccco1 (stereo not given) | > 832 | > 832 | 
CCS(=O)(=O)c1c2cc(OC)ccc2nc2ccc(OC)cc12 | > 200 | > 200 | 
CN(CC(=O)Nc1ccccc1C(=O)O)c1ccccc1 | > 200 | 69.2 | 
CCC(C(=O)NC1CN2CCC1CC2)c1ccccc1 (stereo not given) | > 200 | 174 | 
CCOP(=O)(OCC)C(C(=O)OC)C(=O)C(=O)Nc1cccc(O)c1 (stereo not given) | > 676 | > 676 | 
O=C(O)c1cc(I)cc(I)c1O | > 646 | 107 | 
N#CCCC1(CCC#N)CCc2ccccc2C1=O | > 200 | > 200 | 
O=C(CCN1CCN(c2ccccc2)CC1)N1CCc2c([nH]c3ccccc23)C1c1cccnc1 (stereo not given) | > 15.5 | > 15.5 | 
O=C1c2ccccc2-c2nnc(-c3ccc(Cl)cc3)cc21 | > 100 | > 100 | 
C(#CCN1CCCC1)CCCN1CCCC1 | > 200 | > 200 | 
C=CC1C(=C)CCC2C1CCC1C(C)(C(=O)O)CCCC21C (stereo not given) |  |  | inactive
Cc1cc(C)n2c(=O)[nH]nc2c1 | > 200 | 178 | 
O=C(O)C1(Cl)C2(Cl)C(Cl)=CC3(Cl)C(Cl)(C(=O)O)C2(Cl)C31Cl (stereo not given) | > 200 | > 200 | 
CCOC(=O)[C@H]1Nc2ccc(Cl)cc2[C@H]2CCC[C@@H]12 | > 67.6 | > 67.6 | 
Clc1cccc(C2N3CCCCC3[C@@H]3c4[nH]c5ccccc5c4CCN23)c1 (stereo not given in full) | > 13.8 | > 13.8 | 
Cc1ccc(Nc2nc(C)c(C(=O)CC(=O)C(=O)Nc3ccc(Cl)cc3)s2)cc1 | > 200 | > 200 | 
CC(=O)NNC(=S)/N=C\C(C(=O)c1ccccc1)=C(/O)c1ccccc1 | > 200 | > 200 | 
Cc1ncc([N+](=O)[O-])n1CCOC(N)=O | > 200 | > 200 | 
CC1CCCN2C(=O)CN(Cc3ccccc3)CC(=O)N12 (stereo not given) |  |  | inactive
CCC[CH2][Sn]([CH2]CCC)([S]c1cccc2cccnc12)[S]c1cccc2cccnc12 |  |  | inactive
